Results: BindingDB's records for patent US10556885 (Samumed, 2020)

Tests used:
[1] = target: Dual specificity tyrosine-phosphorylation-regulated kinase 1A (Homo sapiens, UniProt Q13627); experiment: Z-lyte Assay
Protocol: All reactions were performed in duplicate.

[2] = target: Glycogen synthase kinase-3 beta (Homo sapiens, UniProt P49841); experiment: Z-lyte Assay
Sequence of Glycogen synthase kinase-3 beta (P49841 whole entry): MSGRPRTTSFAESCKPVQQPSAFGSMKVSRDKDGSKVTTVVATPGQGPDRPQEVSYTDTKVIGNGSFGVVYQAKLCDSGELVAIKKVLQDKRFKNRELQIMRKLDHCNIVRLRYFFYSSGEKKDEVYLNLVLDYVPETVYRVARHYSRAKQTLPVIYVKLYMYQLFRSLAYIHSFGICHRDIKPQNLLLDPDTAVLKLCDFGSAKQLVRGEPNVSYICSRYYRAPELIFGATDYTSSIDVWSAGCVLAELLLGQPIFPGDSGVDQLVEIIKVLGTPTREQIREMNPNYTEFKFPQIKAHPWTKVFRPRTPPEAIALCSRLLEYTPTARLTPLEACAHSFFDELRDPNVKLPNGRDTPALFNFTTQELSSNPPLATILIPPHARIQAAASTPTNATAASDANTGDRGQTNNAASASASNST

EC50 [1]: 0.0034 µM
EC50 [2]: 0.053 µM
Structure (SMILES): Cc1ncc(-c2ccc3cnc(NC(=O)C4CCC(F)(F)CC4)cc3c2)[nH]1 [US10556885, Compound 121]
